From patent publication EP0153203A1, “C10-C20-Branched-chain fatty acids useful as medicaments and the preparation thereof” (PIERRE FABRE MEDICAMENT, priority 1984, dated 1985)

Test system: oedème généralisé au dextran
Assay: generalized dextran oedema test (anti-inflammatory activity, oral, rat)
Type: in vivo

| Compound | activité anti-inflammatoire (même type) (administration par voie orale chez le rat, concentration and vehicle not stated) | propriétés anti-inflammatoires (test de l'oedème généralisé au dextran) (solution à 1 % dans l'huile d'arachide, voie orale chez le rat, by action on the vascular phase and decrease of platelet aggregation) |
| --- | --- | --- |
| CCC(C)CCCCCCCCCC(=O)O (centres unmarked) [acide antéisomyristique, acide méthyl-11 tridécanoique] | Le même type d'activité anti-inflammatoire a été mis en évidence | – |
| CC(C)CCCCCCCCCCC(=O)O [acide isomyristique, acide méthyl-12 tridécanoTque] | – | propriétés anti-inflammatoires marquées |
